Results from US20100041089A1, “IMPROVED METHOD FOR DETECTING CHEMICAL […]” (priority 2006, published 2010).

System: yeast genes (expressed mRNA)
Test: DNA chip measurement of expressed mRNA of yeast genes after culture with a toxic chemical substance
Type: cell-based, Saccharomyces cerevisiae S288C
Description: Yeast (Saccharomyces cerevisiae S288C (a SUC2mal mel gap2 CUP1)) were cultured at 25° C. on YPD medium (yeast extract 1%, polypeptone 2%, glucose 2%). One of toxic chemical substances was added to the cell at logarithmic growth phase, and the cell was further cultured for two hours. Cell was cultured without any chemical substance in the same condition, and was used as a control. Concentrations of the chemical substances were defined to inhibit the growth of the yeast but not lead to death.
After the completion of cultivation, the culture was centrifuged to collect the cells. To the cells, sodium acetate buffer (50 mM sodium acetate, 10 mM EDTA, 1% SDS) was added, and the mixture was shaken at 65° C. for five minutes, followed by returning to room temperature, and obtaining the supernatant, which procedure was repeated two times. To the supernatant, ½ amount of a solution of phenol/chloroform (1:1) was added, and the mixture was centrifuged to give a supernatant, an equal amount of chloroform was added, and the mixture was centrifuged to give a supernatant. To the supernatant, an equal amount of isopropanol containing 0.3 M sodium acetate was added, and the mixture was allowed to stand at room temperature for 30 minutes, after which the mixture was centrifuged to give sediment of the whole RNAs. Seventy % ethanol was added to the sediment, and the mixture was again centrifuged to give sediment, which was then dried and dissolved in water. mRNA was isolated from the whole RNAs as followings. In view of the fact that a poly A chain is attached to the 3′ terminus of mRNA, a polynucleotide having a poly T structure which was immobilized on the surface of latex beads was used to trap the mRNA, and then the mRNA was washed and eluted with spine column (Oligotex-dT30<Super>mRNA Purification Kit, Takara). Reverse transcription of the mRNA was conducted with a reverse transcriptase (Super Script II Reverse Transcriptase; catalogue No. 18064-014, GibcoBRL) using fluorescence-labeled nucleotides to give cDNAs that were introduced with Cy3-dUTP or Cy5-dUTP during the reverse transcription.
The labeled cDNAs were dissolved in TE buffer (10 mM Tris-HCl/1 mM EDTA, pH 8.0), and the solution was dropped on the DNA chip containing the whole genes of yeast (DNA Chip Research Inc. Japan) so that the cDNAs were hybridized on the DNA chip at 65° C. for over 12 hours. The fluoresces intensity of the DNA chip was read with a scanner, and the ratio relative to the fluorescence intensity resulting from the absence of chemical substance was estimated as the following, which is shown in Tables 1 to 9.
In the Tables, “Intensity” indicated in the rightmost column is a value of the level of expressed mRNA of each gene in control cells as divided by the average level of the expressions of the whole genes. A gene of which mRNA level is lower in control, and is higher in cases of addition of chemical substance, is especially useful in the detection of toxic substances.
Here, when a ratio of an amount of mRNA expressed in the presence of the chemical substance to an amount of mRNA expressed in the absence of the chemical substance is two or more, then it is considered significant.

## CCCCC[C@H](O)CC(=O)CCc1ccc(O)c(OC)c1 [(13), Gingerol]
Yeast gene YFR017C, cultured two hours with substance
  The level of expressed mRNA in the presence of chemical substance/The level of expressed mRNA in the absence of chemical substance: 1.7
Yeast gene YFR026C, cultured two hours with the chemical substance
  level of expressed mRNA in the presence of chemical substance / level in the absence of chemical substance: 1.1
Yeast gene YFR044C, cultured two hours with substance
  The level of expressed mRNA in the presence of chemical substance/The level of expressed mRNA in the absence of chemical substance: 3.1
Yeast gene YGL037C, cultured two hours with substance
  The level of expressed mRNA in the presence of chemical substance/The level of expressed mRNA in the absence of chemical substance: 2.3
Yeast gene YGL088W, cultured two hours with the chemical substance
  level of expressed mRNA in the presence of chemical substance / level in the absence of chemical substance: 0.7
Yeast gene YGL187C, mitochondria-located protein gene, cultured two hours with substance
  The level of expressed mRNA in the presence of chemical substance/The level of expressed mRNA in the absence of chemical substance: 0.7
Yeast gene YGL191W, mitochondria-located protein gene, cultured two hours with substance
  The level of expressed mRNA in the presence of chemical substance/The level of expressed mRNA in the absence of chemical substance: 1.1
Yeast gene YGR038W, cultured two hours with the chemical substance
  level of expressed mRNA in the presence of chemical substance / level in the absence of chemical substance: 1.2
Yeast gene YGR043C, cultured for two hours with substance
  The level of expressed mRNA in the presence of chemical substance/The level of expressed mRNA in the absence of chemical substance: 6.9
Yeast gene YGR101W, cultured two hours with substance
  The level of expressed mRNA in the presence of chemical substance/The level of expressed mRNA in the absence of chemical substance: 2.4
Yeast gene YGR110W, cultured two hours with substance
  The level of expressed mRNA in the presence of chemical substance/The level of expressed mRNA in the absence of chemical substance: 3.6
Yeast gene YGR139W, cultured two hours with the chemical substance
  level of expressed mRNA in the presence of chemical substance / level in the absence of chemical substance: 0.4
Yeast gene YGR146C, cultured two hours with substance
  The level of expressed mRNA in the presence of chemical substance/The level of expressed mRNA in the absence of chemical substance: 1.7
Yeast gene YGR154C, cultured two hours with substance
  The level of expressed mRNA in the presence of chemical substance/The level of expressed mRNA in the absence of chemical substance: 2.5
Yeast gene YGR161C, cultured two hours with substance
  The level of expressed mRNA in the presence of chemical substance/The level of expressed mRNA in the absence of chemical substance: 2.8
Yeast gene YGR231C, DNA repair protein genes, cultured two hours with substance
  The level of expressed mRNA in the presence of chemical substance/The level of expressed mRNA in the absence of chemical substance: 3.9
Yeast gene YGR243W, cultured two hours with the chemical substance
  level of expressed mRNA in the presence of chemical substance / level in the absence of chemical substance: 1.1
Yeast gene YGR256W, cultured for two hours with substance
  The level of expressed mRNA in the presence of chemical substance/The level of expressed mRNA in the absence of chemical substance: 3.9
Yeast gene YGR268C, cultured two hours with substance
  The level of expressed mRNA in the presence of chemical substance/The level of expressed mRNA in the absence of chemical substance: 2.8
Yeast gene YGR293C, cultured two hours with the chemical substance
  level of expressed mRNA in the presence of chemical substance / level in the absence of chemical substance: 0.7
Yeast gene YHL006C, cultured two hours with the chemical substance
  level of expressed mRNA in the presence of chemical substance / level in the absence of chemical substance: 1.1
Yeast gene YHR095W, cultured two hours with the chemical substance
  level of expressed mRNA in the presence of chemical substance / level in the absence of chemical substance: 0.7
Yeast gene YHR105W, cultured two hours with the chemical substance
  level of expressed mRNA in the presence of chemical substance / level in the absence of chemical substance: 1.4
Yeast gene YHR181W, cultured two hours with the chemical substance
  level of expressed mRNA in the presence of chemical substance / level in the absence of chemical substance: 0.7
Yeast gene YHR199C, cultured two hours with substance
  The level of expressed mRNA in the presence of chemical substance/The level of expressed mRNA in the absence of chemical substance: 2.1
Yeast gene YIL087C, cultured two hours with substance
  The level of expressed mRNA in the presence of chemical substance/The level of expressed mRNA in the absence of chemical substance: 2.4
Yeast gene YIL122W, cultured two hours with the chemical substance
  The level of expressed mRNA in the presence of chemical substance/The level of expressed mRNA in the absence of chemical substance: 0.7
Yeast gene YIL127C, cultured two hours with the chemical substance
  level of expressed mRNA in the presence of chemical substance / level in the absence of chemical substance: 0.4
Yeast gene YJL017W, cultured two hours with the chemical substance
  level of expressed mRNA in the presence of chemical substance / level in the absence of chemical substance: 1.5
Yeast gene YJL037W, cultured two hours with the chemical substance
  level of expressed mRNA in the presence of chemical substance / level in the absence of chemical substance: 1.1
Yeast gene YJL057C, cultured two hours with substance
  The level of expressed mRNA in the presence of chemical substance/The level of expressed mRNA in the absence of chemical substance: 2.5
Yeast gene YJL082W, cultured two hours with substance
  The level of expressed mRNA in the presence of chemical substance/The level of expressed mRNA in the absence of chemical substance: 2.1
Yeast gene YJL097W, cultured two hours with the chemical substance
  level of expressed mRNA in the presence of chemical substance / level in the absence of chemical substance: 0.7
Yeast gene YJL144W, cultured two hours with substance
  The level of expressed mRNA in the presence of chemical substance/The level of expressed mRNA in the absence of chemical substance: 3.9
Yeast gene YJL151C, cultured two hours with substance
  The level of expressed mRNA in the presence of chemical substance/The level of expressed mRNA in the absence of chemical substance: 2.4
Yeast gene YJL161W, cultured two hours with substance
  The level of expressed mRNA in the presence of chemical substance/The level of expressed mRNA in the absence of chemical substance: 2.5
Yeast gene YJR030C, cultured two hours with the chemical substance
  level of expressed mRNA in the presence of chemical substance / level in the absence of chemical substance: 0.7
Yeast gene YJR046W, DNA repair protein genes, cultured two hours with substance
  The level of expressed mRNA in the presence of chemical substance/The level of expressed mRNA in the absence of chemical substance: 3.0
Yeast gene YJR074W, cultured two hours with substance
  The level of expressed mRNA in the presence of chemical substance/The level of expressed mRNA in the absence of chemical substance: 2.8
Yeast gene YJR121W, mitochondria-located protein gene, cultured two hours with substance
  The level of expressed mRNA in the presence of chemical substance/The level of expressed mRNA in the absence of chemical substance: 1.0
Yeast gene YJR123W
  The level of expressed mRNA in the presence of chemical substance/The level of expressed mRNA in the absence of chemical substance: 0.1
Yeast gene YKL051W, cultured two hours with the chemical substance
  level of expressed mRNA in the presence of chemical substance / level in the absence of chemical substance: 1.2
